Target: T1, AR (Homo sapiens, UniProt P10275)
T1 construct: endogenous in cells; host or cells: VCaP cells
T1 sequence (P10275 1-920): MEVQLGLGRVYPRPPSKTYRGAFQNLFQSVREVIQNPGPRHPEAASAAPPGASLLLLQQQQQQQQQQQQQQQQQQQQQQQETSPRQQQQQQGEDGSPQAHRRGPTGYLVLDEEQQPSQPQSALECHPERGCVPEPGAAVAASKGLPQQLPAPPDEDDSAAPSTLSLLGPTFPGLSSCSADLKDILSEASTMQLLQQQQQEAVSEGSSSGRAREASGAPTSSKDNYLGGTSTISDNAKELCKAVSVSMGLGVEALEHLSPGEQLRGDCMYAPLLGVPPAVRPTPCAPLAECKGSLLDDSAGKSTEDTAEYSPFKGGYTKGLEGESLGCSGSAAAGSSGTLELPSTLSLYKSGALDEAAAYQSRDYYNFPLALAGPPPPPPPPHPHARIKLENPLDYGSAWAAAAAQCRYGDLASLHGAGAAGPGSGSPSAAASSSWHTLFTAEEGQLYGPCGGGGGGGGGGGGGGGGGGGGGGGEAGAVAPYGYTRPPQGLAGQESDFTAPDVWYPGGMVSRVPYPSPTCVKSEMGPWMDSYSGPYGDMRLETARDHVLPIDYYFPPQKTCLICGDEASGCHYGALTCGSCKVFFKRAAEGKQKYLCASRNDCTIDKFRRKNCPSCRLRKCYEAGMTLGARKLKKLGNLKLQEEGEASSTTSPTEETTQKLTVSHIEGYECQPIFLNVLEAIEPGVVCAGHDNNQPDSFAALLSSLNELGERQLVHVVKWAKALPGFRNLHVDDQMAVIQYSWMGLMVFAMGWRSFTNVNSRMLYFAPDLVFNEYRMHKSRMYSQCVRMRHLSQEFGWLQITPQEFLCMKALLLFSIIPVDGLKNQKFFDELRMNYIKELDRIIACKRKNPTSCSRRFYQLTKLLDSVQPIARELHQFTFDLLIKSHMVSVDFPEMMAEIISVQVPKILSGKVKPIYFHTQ
Assay: VCAP AR Degradation Assay
Format: cell-based
Conditions: for Y (AR degradation efficiency, % of DMSO control): class symbols *; for DC50: class symbols A-C, read-out: DC50
In short: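 AR protein in lysates quantified by sandwich ELISA after 24 h exposure of VCaP cells at 37 °C to 10 concentrations (1:3 steps, 5 μM top, final). Four-parameter logistic fit of percent-of-DMSO levels gave DC50 (50% degradation), EC50 and minimal AR level Y.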

With `CCc1cc(N2C(=S)N(c3ccc(C#N)c(C(F)(F)F)c3)C(=O)C2(C)C)ccc1OCCN1CCN(C(C)(C)C(=O)Nc2cc(Cl)cc(NC3CCC(=O)NC3=O)c2)CC1` (stereo not shown) [Example 133, N-(3-chloro-5-(2,6-dioxopiperidin-3-ylamino)phenyl)-2-(4-(2-(4-(3-(4-cyano-3-(trifluoromethyl)phenyl)-5,5-dimethyl-4-oxo-2-thioxoimidazolidin-1-yl)-2-ethylphenoxy)ethyl)piperazin-1-yl)-2-methylpropanamide] the “Y (AR degradation efficiency, % of DMSO control)” value was “** (25%<Y<=35%)” and the DC50 was 100 to 500 nM.

With `CCc1cc(N2C(=S)N(c3cnc(C#N)c(C(F)(F)F)c3)C(=O)C23CCC3)ccc1OCCN1CCN(CC(=O)Nc2cccc(NC3CCC(=O)NC3=O)c2)C(C)(C)C1` (stereo not shown) [Example 134, 2-(4-(2-(4-(7-(6-cyano-5-(trifluoromethyl)pyridin-3-yl)-8-oxo-6-thioxo-5,7-diazaspiro[3.4]octan-5-yl)-2-ethylphenoxy)ethyl)-2,2-dimethylpiperazin-1-yl)-N-(3-(2,6-dioxopiperidin-3-ylamino)phenyl)acetamide] the “Y (AR degradation efficiency, % of DMSO control)” value was “* (0<Y<=25%)” and the DC50 was < 100 nM.

In the case of `C[C@@H]1CN(CCOc2ccc(N3C(=S)N(c4ccc(C#N)c(C(F)(F)F)c4)C(=O)C3(C)C)cc2CCF)CCN1CC(=O)Nc1cc(Cl)cc(NC2CCC(=O)NC2=O)c1` (stereo partly drawn) [Example 135, N-(3-chloro-5-(2,6-dioxopiperidin-3-ylamino)phenyl)-2-((R)-4-(2-(4-(3-(4-cyano-3-(trifluoromethyl)phenyl)-5,5-dimethyl-4-oxo-2-thioxoimidazolidin-1-yl)-2-(2-fluoroethyl)phenoxy)ethyl)-2-methylpiperazin-1-yl)acetamide], the “Y (AR degradation efficiency, % of DMSO control)” value is reported as “* (0<Y<=25%)” and the DC50 is reported as < 100 nM.

`CC1(C)C(=O)N(c2ccc(C#N)c(C(F)(F)F)c2)C(=S)N1c1ccc(OCCN2CCN(CC(=O)Nc3cc(Cl)cc(NC4CCC(=O)NC4=O)c3)CC2)c(CCF)c1` (stereo not shown) [Example 136, N-(3-chloro-5-(2,6-dioxopiperidin-3-ylamino)phenyl)-2-(4-(2-(4-(3-(4-cyano-3-(trifluoromethyl)phenyl)-5,5-dimethyl-4-oxo-2-thioxoimidazolidin-1-yl)-2-(2-fluoroethyl)phenoxy)ethyl)piperazin-1-yl)acetamide] was tested, and the “Y (AR degradation efficiency, % of DMSO control)” value was “* (0<Y<=25%)” and the DC50 was < 100 nM.

`CCc1cc(N2C(=S)N(c3cnc(C#N)c(C(F)(F)F)c3)C(=O)C2(C)C)ccc1OCCN1CCN(CC(=O)Nc2cccc(N[C@H]3CCC(=O)NC3=O)c2)[C@H](C)C1` [Example 137, 2-((R)-4-(2-(4-(3-(6-cyano-5-(trifluoromethyl)pyridin-3-yl)-5,5-dimethyl-4-oxo-2-thioxoimidazolidin-1-yl)-2-ethylphenoxy)ethyl)-2-methylpiperazin-1-yl)-N-(3-((S)-2,6-dioxopiperidin-3-ylamino)phenyl)acetamide] was tested, and the “Y (AR degradation efficiency, % of DMSO control)” value was “* (0<Y<=25%)” and the DC50 was < 100 nM.

In the case of `CCc1cc(N2C(=S)N(c3cnc(C#N)c(C(F)(F)F)c3)C(=O)C2(C)C)ccc1OCCN1CCN(CC(=O)Nc2cccc(N[C@@H]3CCC(=O)NC3=O)c2)[C@H](C)C1` [Example 138, 2-((R)-4-(2-(4-(3-(6-cyano-5-(trifluoromethyl)pyridin-3-yl)-5,5-dimethyl-4-oxo-2-thioxoimidazolidin-1-yl)-2-ethylphenoxy)ethyl)-2-methylpiperazin-1-yl)-N-(3-((R)-2,6-dioxopiperidin-3-ylamino)phenyl)acetamide], the “Y (AR degradation efficiency, % of DMSO control)” value is reported as “* (0<Y<=25%)” and the DC50 is reported as < 100 nM.

`CCc1cc(N2C(=S)N(c3ccc(C#N)c(C(F)(F)F)c3)C(=O)C2(C)C)ccc1OCCN1CCN(C2(C(=O)Nc3cccc(NC4CCC(=O)NC4=O)c3)CC2)CC1` (stereo not shown) [Example 139, 1-(4-(2-(4-(3-(4-cyano-3-(trifluoromethyl)phenyl)-5,5-dimethyl-4-oxo-2-thioxoimidazolidin-1-yl)-2-ethylphenoxy)ethyl)piperazin-1-yl)-N-(3-(2,6-dioxopiperidin-3-ylamino)phenyl)cyclopropanecarboxamide] was tested, and the “Y (AR degradation efficiency, % of DMSO control)” value was “* (0<Y<=25%)” and the DC50 was < 100 nM.

For `C[C@@H]1CN(CCOc2ccc(N3C(=S)N(c4cnc(C#N)c(C(F)(F)F)c4)C(=O)C3(C)C)cc2CCF)CCN1CC(=O)Nc1cc(Cl)cc(NC2CCC(=O)NC2=O)c1` (stereo partly drawn) [Example 140, N-(3-chloro-5-(2,6-dioxopiperidin-3-ylamino)phenyl)-2-((R)-4-(2-(4-(3-(6-cyano-5-(trifluoromethyl)pyridin-3-yl)-5,5-dimethyl-4-oxo-2-thioxoimidazolidin-1-yl)-2-(2-fluoroethyl)phenoxy)ethyl)-2-methylpiperazin-1-yl)acetamide], the “Y (AR degradation efficiency, % of DMSO control)” value was “* (0<Y<=25%)” and the DC50 was < 100 nM.

For `CC1(C)C(=O)N(c2ccc(C#N)c(C(F)(F)F)c2)C(=S)N1c1ccc(OCCN2CCN(CC(=O)Nc3cc(NC4CCC(=O)NC4=O)ccc3F)CC2)c(CCF)c1` (stereo not shown) [Example 141, 2-(4-(2-(4-(3-(4-cyano-3-(trifluoromethyl)phenyl)-5,5-dimethyl-4-oxo-2-thioxoimidazolidin-1-yl)-2-(2-fluoroethyl)phenoxy)ethyl)piperazin-1-yl)-N-(5-(2,6-dioxopiperidin-3-ylamino)-2-fluorophenyl)acetamide], the “Y (AR degradation efficiency, % of DMSO control)” value was “* (0<Y<=25%)” and the DC50 was < 100 nM.

In the case of `C[C@@H]1CN(CCOc2ccc(N3C(=S)N(c4cnc(C#N)c(C(F)(F)F)c4)C(=O)C34CCC4)cc2CCF)CCN1CC(=O)Nc1cc(Cl)cc(NC2CCC(=O)NC2=O)c1` (stereo partly drawn) [Example 142, N-(3-chloro-5-(2,6-dioxopiperidin-3-ylamino)phenyl)-2-((R)-4-(2-(4-(7-(6-cyano-5-(trifluoromethyl)pyridin-3-yl)-8-oxo-6-thioxo-5,7-diazaspiro[3.4]octan-5-yl)-2-(2-fluoroethyl)phenoxy)ethyl)-2-methylpiperazin-1-yl)acetamide], the “Y (AR degradation efficiency, % of DMSO control)” value is reported as “* (0<Y<=25%)” and the DC50 is reported as < 100 nM.

In the case of `C[C@@H]1CN(CCOc2ccc(N3C(=S)N(c4ccc(C#N)c(C(F)(F)F)c4)C(=O)C34CCC4)cc2CCF)CCN1CC(=O)Nc1cc(Cl)cc(NC2CCC(=O)NC2=O)c1` (stereo partly drawn) [Example 143, N-(3-chloro-5-(2,6-dioxopiperidin-3-ylamino)phenyl)-2-((R)-4-(2-(4-(7-(4-cyano-3-(trifluoromethyl)phenyl)-8-oxo-6-thioxo-5,7-diazaspiro[3.4]octan-5-yl)-2-(2-fluoroethyl)phenoxy)ethyl)-2-methylpiperazin-1-yl)acetamide], the “Y (AR degradation efficiency, % of DMSO control)” value is reported as “* (0<Y<=25%)” and the DC50 is reported as < 100 nM.

In the case of `CCc1cc(N2C(=S)N(c3cnc(C#N)c(C(F)(F)F)c3)C(=O)C2(C)C)ccc1OCCN1CCN(CC(=O)Nc2cc(Cl)cc(NC3CCC(=O)NC3=O)c2)[C@H](C)C1` (stereo partly drawn) [Example 144, N-(3-chloro-5-(2,6-dioxopiperidin-3-ylamino)phenyl)-2-((R)-4-(2-(4-(3-(6-cyano-5-(trifluoromethyl)pyridin-3-yl)-5,5-dimethyl-4-oxo-2-thioxoimidazolidin-1-yl)-2-ethylphenoxy)ethyl)-2-methylpiperazin-1-yl)acetamide], the “Y (AR degradation efficiency, % of DMSO control)” value is reported as “* (0<Y<=25%)” and the DC50 is reported as < 100 nM.

For `CCc1cc(N2C(=S)N(c3cnc(C#N)c(C(F)(F)F)c3)C(=O)C2(C)C)ccc1OCCN1CCN(CC(=O)Nc2cc(Cl)cc(NC3CCC(=O)NC3=O)c2)[C@H](C)C1` (stereo partly drawn) [Example 145, N-(3-chloro-5-(2,6-dioxopiperidin-3-ylamino)phenyl)-2-((R)-4-(2-(4-(3-(6-cyano-5-(trifluoromethyl)pyridin-3-yl)-5,5-dimethyl-4-oxo-2-thioxoimidazolidin-1-yl)-2-ethylphenoxy)ethyl)-2-methylpiperazin-1-yl)acetamide], the “Y (AR degradation efficiency, % of DMSO control)” value was “* (0<Y<=25%)” and the DC50 was < 100 nM.

For `CCc1cc(N2C(=S)N(c3ccc(C#N)c(C(F)(F)F)c3)C(=O)C2(C)C)ccc1OCCN1C[C@H](C)N(CC(=O)Nc2cccc(NC3CCC(=O)NC3=O)c2)[C@@H](C)C1` (stereo partly drawn) [Example 146, 2-((2S,6S)-4-(2-(4-(3-(4-cyano-3-(trifluoromethyl)phenyl)-5,5-dimethyl-4-oxo-2-thioxoimidazolidin-1-yl)-2-ethylphenoxy)ethyl)-2,6-dimethylpiperazin-1-yl)-N-(3-(2,6-dioxopiperidin-3-ylamino)phenyl)acetamide], the “Y (AR degradation efficiency, % of DMSO control)” value was “* (0<Y<=25%)” and the DC50 was < 100 nM.

From patent publication US12404241B2 (Celgene Corporation, priority 2018, dated 2025)
